Calls of active or inactive are those of the source. No cut-off for these calls is given here.

Test [1] concerns Beta-hexosaminidase (Bos taurus). As to the kind of experiment: Inhibitory activity against beta-N-acetylglucosaminidase in bovine kidney at 1 mM.
The target of test [2] is T1, Tissue alpha-L-fucosidase (Bos taurus) (UniProt Q2KIM0).
T1 sequence (whole entry): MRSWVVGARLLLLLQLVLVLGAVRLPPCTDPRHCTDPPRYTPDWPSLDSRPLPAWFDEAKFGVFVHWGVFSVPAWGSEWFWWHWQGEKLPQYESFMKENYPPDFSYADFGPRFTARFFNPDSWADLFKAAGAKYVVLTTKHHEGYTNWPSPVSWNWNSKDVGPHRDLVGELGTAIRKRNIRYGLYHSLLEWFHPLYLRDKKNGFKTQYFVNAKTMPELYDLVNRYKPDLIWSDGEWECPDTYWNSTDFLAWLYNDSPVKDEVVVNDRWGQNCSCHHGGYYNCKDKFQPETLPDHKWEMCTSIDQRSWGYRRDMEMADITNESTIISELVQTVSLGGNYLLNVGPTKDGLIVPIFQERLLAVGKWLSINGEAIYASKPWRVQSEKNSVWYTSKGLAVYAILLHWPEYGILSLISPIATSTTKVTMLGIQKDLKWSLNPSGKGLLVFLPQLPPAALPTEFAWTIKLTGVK
As to the kind of experiment: Inhibitory activity against alpha-L-fucosidase in bovine brain at 1 mM.

Test [3] deals with Glucoamylase (Aspergillus niger) (UniProt P69328). Briefly: Inhibitory activity against amyloglucosidase in Aspergillus niger at 1 mM.
In test [4] the target is T2, Alpha-galactosidase (Escherichia coli K-12) (UniProt P06720).
T2 sequence (whole entry): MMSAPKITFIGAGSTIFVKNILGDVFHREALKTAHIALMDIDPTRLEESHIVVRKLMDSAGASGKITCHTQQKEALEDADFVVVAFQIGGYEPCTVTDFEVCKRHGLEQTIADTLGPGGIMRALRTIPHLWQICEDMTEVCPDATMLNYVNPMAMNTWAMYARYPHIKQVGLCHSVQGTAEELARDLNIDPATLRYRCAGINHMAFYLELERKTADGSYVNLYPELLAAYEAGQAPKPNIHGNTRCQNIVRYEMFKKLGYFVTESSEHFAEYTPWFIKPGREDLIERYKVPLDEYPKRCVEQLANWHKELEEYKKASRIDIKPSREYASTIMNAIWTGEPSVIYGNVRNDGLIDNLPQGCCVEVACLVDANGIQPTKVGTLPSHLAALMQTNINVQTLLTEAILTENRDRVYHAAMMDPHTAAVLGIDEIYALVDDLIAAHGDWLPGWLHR
Briefly: Inhibitory activity against alpha-galactosidase in Escherichia coli at 1 mM.

The nature of test [5]: Inhibitory activity against beta-mannosidase in Helix pomatia at 1 mM.
In test [6] the target is Alpha-galactosidase (Oryza sativa Japonica Group) (UniProt Q9FXT4). As to the kind of experiment: Inhibitory activity against alpha-galactosidase in rice at 1 mM.
The test system of test [7] is Beta-hexosaminidase (Canavalia ensiformis). As to the kind of experiment: Inhibitory activity against beta-N-acetylglucosaminidase in jack beans at 1 mM.
Test [8] addresses T3, Exo-1,4-beta-xylosidase xlnD (Aspergillus niger) (UniProt O00089).
T3 sequence (whole entry): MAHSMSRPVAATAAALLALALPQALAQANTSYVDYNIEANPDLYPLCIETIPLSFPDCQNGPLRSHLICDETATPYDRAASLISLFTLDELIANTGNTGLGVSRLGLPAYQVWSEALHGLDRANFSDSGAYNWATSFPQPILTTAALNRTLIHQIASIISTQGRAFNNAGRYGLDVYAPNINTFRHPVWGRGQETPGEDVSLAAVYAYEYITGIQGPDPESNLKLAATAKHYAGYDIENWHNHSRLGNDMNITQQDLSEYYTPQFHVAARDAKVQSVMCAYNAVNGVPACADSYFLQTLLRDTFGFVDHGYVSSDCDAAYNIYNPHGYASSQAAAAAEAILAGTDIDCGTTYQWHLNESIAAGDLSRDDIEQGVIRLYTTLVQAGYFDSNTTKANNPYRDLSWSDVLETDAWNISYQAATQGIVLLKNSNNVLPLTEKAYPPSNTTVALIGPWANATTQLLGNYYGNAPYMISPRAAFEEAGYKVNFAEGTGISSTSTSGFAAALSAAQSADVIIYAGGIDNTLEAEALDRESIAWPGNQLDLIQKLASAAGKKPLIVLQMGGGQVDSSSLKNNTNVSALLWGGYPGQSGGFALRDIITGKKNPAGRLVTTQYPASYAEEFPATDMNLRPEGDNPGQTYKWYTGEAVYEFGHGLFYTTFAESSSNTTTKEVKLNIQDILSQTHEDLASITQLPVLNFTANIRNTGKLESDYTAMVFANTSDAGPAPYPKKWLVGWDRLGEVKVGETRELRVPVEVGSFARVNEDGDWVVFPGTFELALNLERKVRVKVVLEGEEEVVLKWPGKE
Briefly: Inhibitory activity against beta-xylosidase in Aspergillus niger at 1 mM.

The target of test [9] is Alpha-galactosidase (Coffea arabica) (UniProt Q5DUH8). As to the kind of experiment: Inhibitory activity against alpha-galactosidase in coffee beans at 1 mM.
Test [10] addresses T4, Beta-galactosidase/ beta-glucuronidase (Aspergillus oryzae (strain ATCC 42149 / RIB 40)) (UniProt Q2TXB7).
T4 sequence (whole entry): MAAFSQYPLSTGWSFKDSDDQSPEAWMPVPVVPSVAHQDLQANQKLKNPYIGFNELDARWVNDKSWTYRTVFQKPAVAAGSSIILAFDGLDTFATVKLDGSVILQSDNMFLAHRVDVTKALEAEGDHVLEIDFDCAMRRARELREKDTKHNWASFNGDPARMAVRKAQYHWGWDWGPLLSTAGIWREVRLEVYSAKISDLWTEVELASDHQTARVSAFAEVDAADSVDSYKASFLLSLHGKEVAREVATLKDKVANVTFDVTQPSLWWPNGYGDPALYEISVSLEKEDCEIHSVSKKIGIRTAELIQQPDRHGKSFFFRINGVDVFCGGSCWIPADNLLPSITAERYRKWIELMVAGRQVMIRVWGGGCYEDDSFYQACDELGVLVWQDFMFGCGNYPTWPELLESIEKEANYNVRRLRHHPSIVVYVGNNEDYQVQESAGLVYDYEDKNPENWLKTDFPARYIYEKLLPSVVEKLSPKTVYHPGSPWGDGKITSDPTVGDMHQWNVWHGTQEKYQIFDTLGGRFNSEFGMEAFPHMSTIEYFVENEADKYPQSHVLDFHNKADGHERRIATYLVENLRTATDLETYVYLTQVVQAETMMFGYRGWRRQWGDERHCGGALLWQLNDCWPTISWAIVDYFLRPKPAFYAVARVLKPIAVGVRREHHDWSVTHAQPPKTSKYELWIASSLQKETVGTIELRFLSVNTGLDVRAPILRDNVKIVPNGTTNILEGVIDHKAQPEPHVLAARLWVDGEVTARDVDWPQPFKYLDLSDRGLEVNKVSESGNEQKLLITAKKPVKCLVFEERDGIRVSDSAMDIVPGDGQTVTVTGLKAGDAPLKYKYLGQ
As to the kind of experiment: Inhibitory activity against beta-galactosidase in Aspergillus oryzae at 1 mM.

In test [11] the target is T5, Beta-galactosidase (Bos taurus) (UniProt Q58D55).
T5 sequence (whole entry): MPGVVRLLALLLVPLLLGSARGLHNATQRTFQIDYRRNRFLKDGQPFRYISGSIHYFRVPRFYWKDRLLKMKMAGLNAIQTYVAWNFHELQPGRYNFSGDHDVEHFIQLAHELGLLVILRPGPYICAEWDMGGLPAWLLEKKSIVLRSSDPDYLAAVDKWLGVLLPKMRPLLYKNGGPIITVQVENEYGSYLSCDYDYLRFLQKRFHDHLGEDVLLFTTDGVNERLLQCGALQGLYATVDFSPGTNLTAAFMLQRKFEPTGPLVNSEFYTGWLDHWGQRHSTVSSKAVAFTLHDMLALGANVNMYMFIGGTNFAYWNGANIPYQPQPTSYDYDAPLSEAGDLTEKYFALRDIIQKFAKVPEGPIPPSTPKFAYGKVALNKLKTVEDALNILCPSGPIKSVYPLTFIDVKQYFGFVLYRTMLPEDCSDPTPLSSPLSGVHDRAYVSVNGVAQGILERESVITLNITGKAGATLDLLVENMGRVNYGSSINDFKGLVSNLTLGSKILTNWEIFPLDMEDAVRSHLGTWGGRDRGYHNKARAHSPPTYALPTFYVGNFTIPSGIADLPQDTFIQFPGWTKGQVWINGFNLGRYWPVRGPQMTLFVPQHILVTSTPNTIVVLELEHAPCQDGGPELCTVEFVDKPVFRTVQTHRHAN
As to the kind of experiment: Inhibitory activity against beta-galactosidase in bovine liver at 1 mM.

Test [12] addresses T6, Glucoamylase 1 (Rhizopus oryzae) (UniProt P07683).
T6 sequence (whole entry): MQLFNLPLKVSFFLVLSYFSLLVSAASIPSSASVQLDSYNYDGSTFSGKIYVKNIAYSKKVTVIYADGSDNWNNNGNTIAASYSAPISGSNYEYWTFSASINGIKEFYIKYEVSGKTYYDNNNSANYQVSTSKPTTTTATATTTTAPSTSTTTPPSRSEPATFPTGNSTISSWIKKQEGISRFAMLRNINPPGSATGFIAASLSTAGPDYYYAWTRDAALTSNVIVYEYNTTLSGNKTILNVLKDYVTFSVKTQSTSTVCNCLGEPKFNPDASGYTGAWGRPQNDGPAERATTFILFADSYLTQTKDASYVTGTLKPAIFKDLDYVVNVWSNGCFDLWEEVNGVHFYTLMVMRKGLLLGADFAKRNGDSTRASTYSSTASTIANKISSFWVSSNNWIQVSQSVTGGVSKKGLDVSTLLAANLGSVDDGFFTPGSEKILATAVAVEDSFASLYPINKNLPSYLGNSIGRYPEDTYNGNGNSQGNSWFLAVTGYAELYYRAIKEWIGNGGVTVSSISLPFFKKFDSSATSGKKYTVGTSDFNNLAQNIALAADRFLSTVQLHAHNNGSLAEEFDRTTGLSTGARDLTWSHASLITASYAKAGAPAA
As to the kind of experiment: Inhibitory activity against amyloglucosidase in Rhizopus mold at 1 mM.

The test system of the next test is Saccharomyces cerevisiae. As to the kind of experiment: Inhibitory activity against alpha-glucosidase in yeast. The settings on record: concentration not given here.

Sequence of Alpha-galactosidase (Coffea arabica) (Q5DUH8 as listed by the source): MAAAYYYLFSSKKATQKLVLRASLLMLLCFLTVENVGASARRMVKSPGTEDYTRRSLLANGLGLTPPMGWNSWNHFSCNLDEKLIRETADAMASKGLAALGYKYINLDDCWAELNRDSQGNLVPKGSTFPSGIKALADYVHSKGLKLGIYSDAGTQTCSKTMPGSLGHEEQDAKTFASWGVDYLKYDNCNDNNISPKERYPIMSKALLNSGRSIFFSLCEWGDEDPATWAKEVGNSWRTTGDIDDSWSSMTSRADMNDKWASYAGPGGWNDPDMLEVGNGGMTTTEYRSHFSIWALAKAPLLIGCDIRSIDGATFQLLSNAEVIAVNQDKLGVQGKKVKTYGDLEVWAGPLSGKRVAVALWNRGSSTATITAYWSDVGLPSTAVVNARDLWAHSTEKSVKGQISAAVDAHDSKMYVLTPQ
Sequence of Alpha-galactosidase (Oryza sativa Japonica Group) (Q9FXT4 whole entry): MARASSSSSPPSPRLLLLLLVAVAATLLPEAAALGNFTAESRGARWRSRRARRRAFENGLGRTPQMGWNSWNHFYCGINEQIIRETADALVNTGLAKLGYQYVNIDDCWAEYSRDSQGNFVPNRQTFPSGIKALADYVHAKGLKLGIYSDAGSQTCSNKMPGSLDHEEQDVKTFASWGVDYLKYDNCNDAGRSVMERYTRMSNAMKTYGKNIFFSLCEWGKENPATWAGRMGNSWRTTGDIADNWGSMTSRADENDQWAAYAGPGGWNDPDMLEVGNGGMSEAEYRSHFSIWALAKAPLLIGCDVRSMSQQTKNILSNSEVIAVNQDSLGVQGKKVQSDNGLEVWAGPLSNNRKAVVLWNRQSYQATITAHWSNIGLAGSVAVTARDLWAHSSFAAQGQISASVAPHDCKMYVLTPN
Sequence of Glucoamylase (Aspergillus niger) (P69328 whole entry): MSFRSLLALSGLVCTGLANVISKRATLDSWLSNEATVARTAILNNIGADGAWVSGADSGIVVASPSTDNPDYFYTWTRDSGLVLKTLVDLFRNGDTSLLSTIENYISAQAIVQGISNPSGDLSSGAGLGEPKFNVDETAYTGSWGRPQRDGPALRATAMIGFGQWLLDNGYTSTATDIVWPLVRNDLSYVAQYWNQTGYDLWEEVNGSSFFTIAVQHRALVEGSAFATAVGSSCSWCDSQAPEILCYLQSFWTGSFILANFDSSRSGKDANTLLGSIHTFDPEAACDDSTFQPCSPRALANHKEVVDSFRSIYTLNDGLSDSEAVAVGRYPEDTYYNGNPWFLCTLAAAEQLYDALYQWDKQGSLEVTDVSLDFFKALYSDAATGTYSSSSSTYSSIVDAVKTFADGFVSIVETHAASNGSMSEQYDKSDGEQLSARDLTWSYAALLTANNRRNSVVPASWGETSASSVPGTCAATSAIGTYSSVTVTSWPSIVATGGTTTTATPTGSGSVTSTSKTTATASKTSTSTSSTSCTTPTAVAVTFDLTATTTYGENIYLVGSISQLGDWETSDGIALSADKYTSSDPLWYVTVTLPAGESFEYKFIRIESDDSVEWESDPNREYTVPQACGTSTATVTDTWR

One may read the inhibition as the change of the read-out against control, counted positive when it falls. As for `CC1(O)C(=O)N2CCCC2C1O` (configuration not stated), the result in test [1], in test [2], in test [3], in [4], in [5] and in test [6] was inactive. Moreover, the outcome in test [7], in test [8], in test [9], in [10], in test [11] and in test [12] was inactive. For the same molecule, in the test on Saccharomyces cerevisiae, the inhibition amounted to 45%.

As to `CC(C)[C@@H]1NC(=O)C(C)(O)C1O` (some centres not stated), the result in test [1], in test [2], in test [3], in test [4], in test [5] and in [6] was inactive. Besides, the outcome in [7], in test [8], in [9], in test [10], in test [11] and in test [12] was inactive. This molecule also registered an inhibition in the test on Saccharomyces cerevisiae of 51%.

As for `C[C@@H]1CNC(=O)C(C)(O)C1O` (some centres not stated), the result in [1], in test [2], in test [3], in test [4], in [5] and in [6] was inactive. For the same molecule, the outcome in test [7], in [8], in test [9], in [10], in [11] and in test [12] was inactive. The inhibition with Saccharomyces cerevisiae is 46%.

With `C[C@@H]1NC(=O)C(C)(O)C1O` (some centres not stated), the result in [1], in test [2], in [3], in test [4], in test [5] and in test [6] was inactive. Also, the result in test [7], in test [8], in test [9], in test [10], in [11] and in test [12] was inactive. This molecule also gave an inhibition in the test on Saccharomyces cerevisiae of 48%.

The values above are taken from ChEMBL document CHEMBL1148566, “Stereoselective synthesis and glycosidase inhibitory activity of 3,4-dihydroxy-pyrrolidin-2-one, 3,4-dihydroxy-piperidin-2-one and 1,2-dihydroxy-pyrrolizidin-3-one” (Bioorg Med Chem Lett, 2006).
